Test results: patent US5502066A, “1,2,4-dithiazolium salts as chemotherapeutics” (Bayer Aktiengesellschaft, priority 1993, dated 1996)

Legend:
[1] = system: endotoxemic shock in D-GalN-sensitized mice; assay: in vivo; parameters: lethality, Dose 10 mg/kg / lethality, Dose 30 mg/kg / lethality, Dose 60 mg/kg: unit not given here; settings: LPS + D-GalN control 100, 48 hours; for lethality, Dose 10 mg/kg: 10 mg/kg i.p. one hour before LPS (0.1 μg/mouse) + D-GalN (60 mg/kg); for lethality, Dose 30 mg/kg: 30 mg/kg i.p. one hour before LPS (0.1 μg/mouse) + D-GalN (60 mg/kg); for lethality, Dose 60 mg/kg: 60 mg/kg i.p. one hour before LPS (0.1 μg/mouse) + D-GalN (60 mg/kg)
Procedure: (§1) Substances from the class of dithiazolium salts are described in their protective action by way of example in the following: in vitro in the TNF-α-mediated cytotoxicity test, and in vivo on mice which have been exposed to an endotoxin shock.
(§2) In vivo experiments on inhibition of provoked endotoxin shock were carried out on female inbred mice (F1 B6D2!). Endotoxin/lipopolysaccharide (LPS) from Salmonella abortus equi (0.1 μg/mouse) was administered intraperitoneally or intravenously in association with D-galactosamine hydrochloride (D-GalN; 60 mg/kg of bodyweight) in accordance with reports by Galanos et al. (1979, Proc. Natl. Acad. Sci. USA 76: 5939; V. Lehmann et al. 1987, J. Exp. Med. 165: 657). The substances were administered intraperitoneally one hour before inducement of the endotoxemic shock. The observation period was 48 hours.

in vivo = assay: in vivo; parameters: lethality, Dose 10 mg/kg / lethality, Dose 30 mg/kg / lethality, Dose 60 mg/kg: unit not given here; settings: mouse, in vivo, ip; substance 60 mg/kg + D-GalN 60 mg/kg, without LPS; mice; observation 48 hours; read-out: lethality, Substance + D-GalN control
Procedure: as §1, §2

| SMILES | lethality, Dose 10 mg/kg [1] | lethality, Dose 30 mg/kg [1] | lethality, Dose 60 mg/kg [1] | mortality at 48 h (in vivo) [%] |
| --- | --- | --- | --- | --- |
| CN(C)c1nc(=[N+](C)Cc2ccc(Cl)cc2)ss1 [Example 46] | 0 | 0 | 0 | 0 |
| CN(C)c1nc(=[N+](C)c2ccccc2)ss1.F[B-](F)(F)F [Example 3, N-(5-dimethylamino-3H-1,2,4-dithiazole-3-ylidene)-N-methylanilinium tetrafluoroborate] | 80 | 40 | 0 | 0 |
| CN(C)c1nc(=[N+](C)Cc2ccc(Cl)c(Cl)c2)ss1 [Example 43] | 20 | 20 | 0 | 0 |
| CN(C)c1nc(=[N+]2CCOCC2)ss1 [Example 5] | 40 | 0 | 0 | 0 |
| CC(C)[N+](=c1nc(N(C)C)ss1)C(C)C [Example 10] | 20 | 0 | 0 | 0 |
| CN(C)c1nc(=[N+](C)Cc2ccc(Cl)cc2Cl)ss1 [Example 48] | 0 | 0 | 0 | 0 |
| CN1CC[N+](=c2nc(N(C)C)ss2)CC1 [Example 8] | 40 | 0 | 0 | 0 |
| CC1C[N+](=c2nc(N(C)C)ss2)CC(C)O1.[I-] (centres unmarked) [Example 2, 4-(5-dimethylamino-3H-1,2,4-dithiazole-3-ylidene)-2,6-dimethyl-morpholinium iodide] | 100 | 20 | 0 | 0 |
